We go through one compound from paper PMC10731000, “Functional characterization of three G protein-coupled acetylcholine receptors in parasitic nematode Trichinella spiralis” (International Journal for Parasitology: Drugs and Drug …, 2023).

Each structure is given as a SMILES string. Where a name gives a salt, the structure may show the parent alone. Bounds are passed on as bounds.

Broadly, the IC50 is the concentration needed to halve the response being measured.

In test [1] the test system is A. suum GAR-1. More on the design: method as in Kimber et al., 2009. The settings on record: ref Kimber et al., 2009; cited from earlier work.
In test [2] the target is TsGAR-3 (Trichinella spiralis, UniProt E5S5F5). The test can be described thus: Aequorin antagonist assay (block of 10 μM ACh response) in CHO-K1 cells expressing TsGAR-3. Format: cell-based. As to the method: Therefore, there were two types of transient expression: i) TsGAR-1, -2, or -3/aequorin/Gα15(16); and ii) TsGAR-1, -2, or -3/aequorin.
Briefly, CHO–K1 cells were kept in growth medium (Ham's F12 Media with 10% fetal bovine serum) until 70% of confluence was reached. FuGENE® HD Transfection Reagent (Promega) was then used to transfect the plasmid constructs. Prior to the assay, the cells were pre-equilibrated with coelenterazine h (Promega) for 3 h at room temperature. The assay was performed in opaque 96-well microplates (Nunc) using either Fluostar Omega (BMG Labtech) or GloMax® Plate Reader (Promega). In agonist assays, 50 μL of various doses of agonistic ligands were added to wells in triplicate, followed by injection of 50μL/∼15,000 of CHO–K1 cells. […] When performing the antagonist assay, cells were pre-incubated with different doses of antagonistic ligands for 5 min in RT (in a 96-well plate) and subsequently a 50 μL of 10 μM ACh solution was injected into the wells. The changes in luminescence were measured for 25 s immediately after injecting ACh, and time integrated values were normalized to the response of those wells in each plate that only contained cells with medium. A dose-response curve was plotted afterwards for each data set and half-maximum response values (EC50 or IC50) along the Hill coefficient (nH) were calculated using GraphPad Prism 8.0 (GraphPad Software). Two and three biological replicates were performed for the testing of T. spiralis GARs with or without the Gα15(16) and agonistic or antagonistic assay, respectively, with three technical replicates for each ligand. In terms of negative controls, a mock transfection was performed using empty pcDNA3.1 (+) plasmid, with an aequorin reporter and Gα15(16) subunit. To confirm the specificity of T. spiralis GAR-1, -2, and -3 affinity, we tested dopamine, octopamine and norepinephrine chemical agents.

Test [3] has as its system C. elegans GAR-1. More on the design: method as in Lee et al., 1999, Lee et al., 2000. The following applies: ref Lee et al., 1999, Lee et al., 2000; cited from earlier work.
Test [4] addresses TsGAR-1 (Trichinella spiralis, UniProt A0A0V1C1R2). Kind of test: Aequorin antagonist assay (block of 10 μM ACh response) in CHO-K1 cells expressing TsGAR-1. Format: cell-based. The settings on record: co-expressed with Gα15(16). From the text: (§1) T. spiralis GARs were heterologously expressed in CHO–K1 cells (Sigma) along with the aequorin reporter—with or without the wild-type human G protein alpha 15 subunit (Gα15(16)) (cDNA Resource Center, Bloomsburg University of Pennsylvania)—to observe activation of the receptor by monitoring bioluminescence triggered by the mobilization of intracellular calcium ([Offermanns and Simon, 1995]; [Park et al., 2002]). Therefore, there were two types of transient expression: i) TsGAR-1, -2, or -3/aequorin/Gα15(16); and ii) TsGAR-1, -2, or -3/aequorin. The use of Gα15(16) in the first assay is due to its highly efficient way of linking calcium mobilization signaling pathways to GPCRs that are preferentially coupling with Gi/o or Gs protein members ([Offermanns and Simon, 1995]).
For handling cell lines, all transfection details, and monitoring receptor activities, we followed the previously published study ([Šimo et al., 2011], [2013]; [Mateos-Hernández et al., 2020]). Briefly, CHO–K1 cells were kept in growth medium (Ham's F12 Media with 10% fetal bovine serum) until 70% of confluence was reached. FuGENE® HD Transfection Reagent (Promega) was then used to transfect the plasmid constructs. Prior to the assay, the cells were pre-equilibrated with coelenterazine h (Promega) for 3 h at room temperature. The assay was performed in opaque 96-well microplates (Nunc) using either Fluostar Omega (BMG Labtech) or GloMax® Plate Reader (Promega). In agonist assays, 50 μL of various doses of agonistic ligands were added to wells in triplicate, followed by injection of 50μL/∼15,000 of CHO–K1 cells. Immediately after the cell injections, luminescence values were monitored for 25 s and their integrated values over time were normalized to the largest positive control response in each plate (45 μM ACh) after background noise was subtracted. When performing the antagonist assay, cells were pre-incubated with different doses of antagonistic ligands for 5 min in RT (in a 96-well plate) and subsequently a 50 μL of 10 μM ACh solution was injected into the wells. The changes in luminescence were measured for 25 s immediately after injecting ACh, and time integrated values were normalized to the response of those wells in each plate that only contained cells with medium. A dose-response curve was plotted afterwards for each data set and half-maximum response values (EC50 or IC50) along the Hill coefficient (nH) were calculated using GraphPad Prism 8.0 (GraphPad Software). Two and three biological replicates were performed for the testing of T. spiralis GARs with or without the Gα15(16) and agonistic or antagonistic assay, respectively, with three technical replicates for each ligand. […]

The target of test [5] is TsGAR-2 (Trichinella spiralis, UniProt E5SAZ1). Kind of test: Aequorin antagonist assay (block of 10 μM ACh response) in CHO-K1 cells expressing TsGAR-2. The settings on record: co-expressed with Gα15(16). Format: cell-based.
Source text: as §1
For handling cell lines, all transfection details, and monitoring receptor activities, we followed the previously published study ([Šimo et al., 2011], [2013]; [Mateos-Hernández et al., 2020]). Briefly, CHO–K1 cells were kept in growth medium (Ham's F12 Media with 10% fetal bovine serum) until 70% of confluence was reached. FuGENE® HD Transfection Reagent (Promega) was then used to transfect the plasmid constructs. Prior to the assay, the cells were pre-equilibrated with coelenterazine h (Promega) for 3 h at room temperature. The assay was performed in opaque 96-well microplates (Nunc) using either Fluostar Omega (BMG Labtech) or GloMax® Plate Reader (Promega). In agonist assays, 50 μL of various doses of agonistic ligands were added to wells in triplicate, followed by injection of 50μL/∼15,000 of CHO–K1 cells. Immediately after the cell injections, luminescence values were monitored for 25 s and their integrated values over time were normalized to the largest positive control response in each plate (45 μM ACh) after background noise was subtracted. When performing the antagonist assay, cells were pre-incubated with different doses of antagonistic ligands for 5 min in RT (in a 96-well plate) and subsequently a 50 μL of 10 μM ACh solution was injected into the wells. The changes in luminescence were measured for 25 s immediately after injecting ACh, and time integrated values were normalized to the response of those wells in each plate that only contained cells with medium. A dose-response curve was plotted afterwards for each data set and half-maximum response values (EC50 or IC50) along the Hill coefficient (nH) were calculated using GraphPad Prism 8.0 (GraphPad Software). Two and three biological replicates were performed for the testing of T. spiralis GARs with or without the Gα15(16) and agonistic or antagonistic assay, respectively, with three technical replicates for each ligand. In terms of negative controls, a mock transfection was performed using empty pcDNA3.1 (+) plasmid, with an aequorin reporter and Gα15(16) subunit. To confirm the specificity of T. spiralis GAR-1, -2, and -3 affinity, we tested dopamine, octopamine and norepinephrine chemical agents.

Test [6] relates to C. elegans GAR-2. The arrangement: method as in Lee et al., 1999, Lee et al., 2000. The following applies: ref Lee et al., 1999, Lee et al., 2000; cited from earlier work.

Sequence of TsGAR-2 (E5SAZ1 entry or part of it): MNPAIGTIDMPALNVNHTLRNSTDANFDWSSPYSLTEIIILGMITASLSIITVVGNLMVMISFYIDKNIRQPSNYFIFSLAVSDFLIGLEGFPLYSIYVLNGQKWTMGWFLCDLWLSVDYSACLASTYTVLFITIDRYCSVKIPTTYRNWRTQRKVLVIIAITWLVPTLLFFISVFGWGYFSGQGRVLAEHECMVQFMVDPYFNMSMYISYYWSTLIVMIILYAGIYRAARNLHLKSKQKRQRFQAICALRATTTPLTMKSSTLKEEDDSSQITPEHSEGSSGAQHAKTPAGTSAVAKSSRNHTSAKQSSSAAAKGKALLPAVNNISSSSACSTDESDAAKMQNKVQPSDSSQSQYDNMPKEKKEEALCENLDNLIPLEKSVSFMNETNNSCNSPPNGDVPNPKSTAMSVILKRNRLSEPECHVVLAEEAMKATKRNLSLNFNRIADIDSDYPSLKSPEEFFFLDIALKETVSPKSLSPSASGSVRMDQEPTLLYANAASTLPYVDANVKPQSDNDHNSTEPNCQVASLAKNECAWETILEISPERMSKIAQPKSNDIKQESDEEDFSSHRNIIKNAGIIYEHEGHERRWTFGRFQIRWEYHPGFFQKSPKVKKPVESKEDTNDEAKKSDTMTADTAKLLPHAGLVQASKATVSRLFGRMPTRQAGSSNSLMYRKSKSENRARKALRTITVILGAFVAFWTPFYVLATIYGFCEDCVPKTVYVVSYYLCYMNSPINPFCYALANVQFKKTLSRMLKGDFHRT
Sequence of TsGAR-3 (E5S5F5 entry or part of it): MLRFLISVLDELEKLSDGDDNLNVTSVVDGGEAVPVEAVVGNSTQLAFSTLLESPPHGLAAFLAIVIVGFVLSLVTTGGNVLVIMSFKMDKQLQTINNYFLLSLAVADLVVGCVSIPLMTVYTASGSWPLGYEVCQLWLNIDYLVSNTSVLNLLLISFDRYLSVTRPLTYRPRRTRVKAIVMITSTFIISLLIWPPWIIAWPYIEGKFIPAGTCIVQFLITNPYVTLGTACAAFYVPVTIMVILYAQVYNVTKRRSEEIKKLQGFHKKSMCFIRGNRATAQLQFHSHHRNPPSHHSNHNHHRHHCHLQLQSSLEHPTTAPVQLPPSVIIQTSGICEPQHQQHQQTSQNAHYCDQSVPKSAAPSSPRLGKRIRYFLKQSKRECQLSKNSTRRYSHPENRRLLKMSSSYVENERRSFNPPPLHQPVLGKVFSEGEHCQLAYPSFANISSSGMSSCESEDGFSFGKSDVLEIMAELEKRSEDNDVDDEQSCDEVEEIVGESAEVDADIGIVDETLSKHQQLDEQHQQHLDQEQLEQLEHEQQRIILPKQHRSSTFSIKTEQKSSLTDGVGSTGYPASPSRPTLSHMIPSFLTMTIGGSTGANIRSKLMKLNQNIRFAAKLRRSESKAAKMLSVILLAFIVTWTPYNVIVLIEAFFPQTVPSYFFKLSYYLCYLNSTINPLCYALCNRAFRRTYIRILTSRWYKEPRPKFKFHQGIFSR
Sequence of TsGAR-1 (A0A0V1C1R2 entry or part of it): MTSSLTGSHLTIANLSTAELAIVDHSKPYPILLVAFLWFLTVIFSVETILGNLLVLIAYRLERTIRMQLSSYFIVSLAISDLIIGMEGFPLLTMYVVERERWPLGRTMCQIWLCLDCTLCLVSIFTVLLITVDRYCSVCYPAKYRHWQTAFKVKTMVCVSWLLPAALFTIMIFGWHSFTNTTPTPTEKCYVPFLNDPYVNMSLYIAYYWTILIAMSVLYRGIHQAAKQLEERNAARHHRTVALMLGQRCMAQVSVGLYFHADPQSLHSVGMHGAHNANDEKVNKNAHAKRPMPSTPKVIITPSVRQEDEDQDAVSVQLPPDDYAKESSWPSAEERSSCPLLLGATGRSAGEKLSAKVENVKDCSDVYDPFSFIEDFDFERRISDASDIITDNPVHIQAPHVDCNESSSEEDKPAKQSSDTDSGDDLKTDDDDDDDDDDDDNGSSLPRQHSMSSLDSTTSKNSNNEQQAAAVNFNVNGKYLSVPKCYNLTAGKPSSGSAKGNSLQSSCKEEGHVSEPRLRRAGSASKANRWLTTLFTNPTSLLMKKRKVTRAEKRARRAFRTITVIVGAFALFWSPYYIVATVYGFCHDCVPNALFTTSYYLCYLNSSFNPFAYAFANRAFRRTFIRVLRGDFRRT

Take `CCCOC(C(=O)OC1CCN(C)CC1)(c1ccccc1)c1ccccc1` [Propiverine, propiverine hydrochloride]: in test [1], the “antagonist effect on A. suum GAR-1 (in words)” value is given as “largely no effect”. For the same compound, the concentration for half-maximal inhibition (IC50) was greater than 10 µM in test [2]; greater than 10000 nM in test [4] (antagonist vs 10 μM ACh, read-out: IC50 ± SE (nM), TsGAR-1); greater than 10000 nM in test [5] (antagonist vs 10 μM ACh, read-out: IC50 ± SE (nM), TsGAR-2). The “nH (Hill coefficient), antagonist, TsGAR-3” value in test [2] (antagonist, without Gα15(16)) was −0.6649. The “antagonist effect on TsGAR-3 (in words)” value in test [2] (without Gα15(16)) is recorded as “partially blocked”. Further, the “antagonist effect on C. elegans GAR-1 (in words)” value in test [3] is on record as “largely no effect”. Further, the “antagonist effect on TsGAR-1 (in words)” value in test [4] is recorded as “partially blocked”. In addition, in test [5] (antagonist), the “nH (Hill coefficient), antagonist, TsGAR-2” value is −3.002. Moreover, in test [5], the “antagonist effect on TsGAR-2 (in words)” value was “partially blocked”. In test [6], the “antagonist effect on C. elegans GAR-2 (in words)” value is “largely no effect”.
